Reference: patent US20250304644A1, “PEPTIDES TRIPLE AGONISTS OF GIP, GLP-1 AND GLP-2” (BAINAN BIOTECH APS, priority 2021, published 2025)
Read-outs that look alike come from different tables or passages of the source. *1 amine or outer side, *2 acyl side, *3 side chain or, on linkers, in order; H or OH if unused. Where a SMILES comes first, the peptide text is derived from it. Side-chain parts run from the residue outwards. The star is where a group is joined. C18 diacid = O=C(O)CCCCCCCCCCCCCCCCC(=O)*; γGlu = O=C(O)[C@H](CCC(=O)[*:2])N[*:1]; AEEA = NCCOCCOCC(=O)O

Tests used:
Assay type in all cases: cell-based
[1] = biological target: T1, human GLP-2R (Homo sapiens, UniProt O95838); test: cAMP assay (HitHunter) in transiently transfected COS-7 cells expressing human GLP-2R
T1 construct: host or cells: COS-7
T1 sequence (O95838 1-553): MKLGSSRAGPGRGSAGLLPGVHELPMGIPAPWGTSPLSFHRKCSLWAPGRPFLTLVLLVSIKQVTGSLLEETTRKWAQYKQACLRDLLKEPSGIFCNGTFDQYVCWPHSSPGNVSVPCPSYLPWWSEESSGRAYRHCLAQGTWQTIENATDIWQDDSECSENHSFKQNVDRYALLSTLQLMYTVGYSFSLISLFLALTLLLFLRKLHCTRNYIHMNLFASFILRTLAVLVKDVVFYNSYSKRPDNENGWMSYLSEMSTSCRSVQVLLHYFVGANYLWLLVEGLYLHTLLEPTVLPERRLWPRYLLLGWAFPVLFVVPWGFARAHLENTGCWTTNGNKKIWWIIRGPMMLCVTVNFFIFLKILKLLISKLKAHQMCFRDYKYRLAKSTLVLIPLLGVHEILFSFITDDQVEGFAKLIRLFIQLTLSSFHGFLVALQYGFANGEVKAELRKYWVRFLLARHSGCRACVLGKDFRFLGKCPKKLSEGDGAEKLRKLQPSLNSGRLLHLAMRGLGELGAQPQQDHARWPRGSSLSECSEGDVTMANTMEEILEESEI

[2] = biological target: T2, human SNP-tagged GLP-2R (Homo sapiens, UniProt O95838); test: Receptor internalization assay, HEK293A cells expressing human SNAP-tagged GLP-2R; details: for Absolute hGLP-2R internalization (AUC): AUC of sigmoid curves up to 1 μM, 60 minutes at 37° C.; for Relative hGLP-2R internalization (%): relative to native ligand = 100
T2 construct: expressed in transfected cells; host or cells: HEK293A
T2 sequence (O95838 1-553): T1 sequence (O95838 1-553)

[3] = biological target: T3, human GLP-1R (Homo sapiens, UniProt P43220); test: cAMP assay (HitHunter) in transiently transfected COS-7 cells expressing human GLP-1R
T3 construct: host or cells: COS-7
T3 sequence (P43220 24-463): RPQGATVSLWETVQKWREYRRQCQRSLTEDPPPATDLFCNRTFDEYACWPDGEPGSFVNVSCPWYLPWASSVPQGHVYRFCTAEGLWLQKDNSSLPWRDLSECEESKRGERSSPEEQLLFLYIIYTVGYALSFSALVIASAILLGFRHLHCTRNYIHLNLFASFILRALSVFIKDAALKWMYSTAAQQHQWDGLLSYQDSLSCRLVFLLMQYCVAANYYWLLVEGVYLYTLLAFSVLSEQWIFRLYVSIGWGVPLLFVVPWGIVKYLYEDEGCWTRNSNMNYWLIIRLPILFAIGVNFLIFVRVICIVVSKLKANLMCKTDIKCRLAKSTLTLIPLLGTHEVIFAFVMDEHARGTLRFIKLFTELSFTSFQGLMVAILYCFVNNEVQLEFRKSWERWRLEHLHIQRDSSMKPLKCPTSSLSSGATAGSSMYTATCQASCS

[4] = biological target: T4, human SNAP-tagged GLP-1R (Homo sapiens, UniProt P43220); test: Receptor internalization assay, HEK293A cells expressing human SNAP-tagged GLP-1R; details: for Absolute hGLP-1R internalization (AUC): AUC of sigmoid curves up to 1 μM, 60 minutes at 37° C.; for Relative hGLP-1R internalization (%): relative to hGLP-1 = 100
T4 construct: expressed in transfected cells; host or cells: HEK293A
T4 sequence (P43220 24-463): as above

[5] = biological target: T5, human GIPR (Homo sapiens, UniProt P48546); test: cAMP assay (HitHunter) in transiently transfected COS-7 cells expressing human GIPR
T5 construct: host or cells: COS-7
T5 sequence (P48546 22-466): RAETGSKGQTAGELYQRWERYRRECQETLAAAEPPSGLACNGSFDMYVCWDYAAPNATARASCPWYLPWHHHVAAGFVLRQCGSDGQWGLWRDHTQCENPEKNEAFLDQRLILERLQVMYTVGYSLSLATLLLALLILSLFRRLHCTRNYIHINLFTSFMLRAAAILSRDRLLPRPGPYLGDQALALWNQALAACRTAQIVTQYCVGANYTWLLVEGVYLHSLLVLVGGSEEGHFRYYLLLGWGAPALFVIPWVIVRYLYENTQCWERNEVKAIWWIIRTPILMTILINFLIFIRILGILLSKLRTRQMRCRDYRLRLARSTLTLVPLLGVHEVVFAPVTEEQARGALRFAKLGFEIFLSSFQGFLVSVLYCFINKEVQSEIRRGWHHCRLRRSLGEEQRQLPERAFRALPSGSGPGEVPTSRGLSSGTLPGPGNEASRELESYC

[6] = biological target: human glucagon receptor (GCGR) (Homo sapiens, UniProt P47871); test: Gs activation measured as cAMP accumulation on human glucagon receptor (FIG. 1 radar plot); details: read-out: −p Log EC50 on human glucagon receptor (GCGR) (converted)
Sequence of human glucagon receptor (GCGR) (P47871 26-477): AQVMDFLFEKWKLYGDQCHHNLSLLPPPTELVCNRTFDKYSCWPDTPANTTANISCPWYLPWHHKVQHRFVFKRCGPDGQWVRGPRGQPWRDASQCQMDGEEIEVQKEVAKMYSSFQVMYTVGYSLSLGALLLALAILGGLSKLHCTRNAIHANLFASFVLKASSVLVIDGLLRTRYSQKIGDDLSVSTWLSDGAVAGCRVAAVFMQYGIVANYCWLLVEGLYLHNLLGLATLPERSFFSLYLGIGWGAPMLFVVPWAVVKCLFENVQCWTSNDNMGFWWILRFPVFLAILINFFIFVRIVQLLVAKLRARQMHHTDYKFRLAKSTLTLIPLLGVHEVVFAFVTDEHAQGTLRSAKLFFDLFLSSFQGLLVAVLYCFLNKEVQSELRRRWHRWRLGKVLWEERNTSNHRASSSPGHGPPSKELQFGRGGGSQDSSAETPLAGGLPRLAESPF
Excerpt: Here, the compounds 20, 21, 22, 28, 30, 31,32, 33, 34, 35 are shown in terms of their potencies in Gs activation, measured as CAMP accumulation, depicted in a radar plot. The numbers refer to −p Log EC50 values. […] The outer rings correspond to higher potencies, the inner rings correspond to lower potencies.

[7] = biological target: T6, human SNAP-tagged GIPR (Homo sapiens, UniProt P48546); test: Receptor internalization assay, HEK293A cells expressing human SNAP-tagged GIPR
T6 construct: host or cells: HEK293A
T6 sequence (P48546 22-466): T5 sequence (P48546 22-466)

[8] = COS-7, read-out: Efficacy GLP-2R (Emax)
[9] = COS-7, read-out: Efficacy GLP-1R (Emax)
[10] = COS-7, read-out: Efficacy GIPR (Emax)

Emax ([1]; COS-7, normalized to highest concentration of the endogenous ligand, read-out: Efficacy GLP-2R (Emax)) [%] | EC50 ([1]; cAMP, COS-7 cells, human GLP-2R, read-out: EC50 (nM) GLP-2R) [nM] | Emax ([3]; COS-7, normalized to highest concentration of the endogenous ligand, read-out: Efficacy GLP-1R (Emax)) [%] | Emax ([5]; COS-7, normalized to highest concentration of the endogenous ligand, read-out: Efficacy GIPR (Emax)) [%] | loss in GIP potency in cAMP ([5]; fatty acid in position 17 compared to position 16 (Compound 30)) [fold] | Absolute hGIPR internalization (AUC) ([7]; AUC of sigmoid curves up to 1 μM, 60 minutes at 37° C.) | Relative hGIPR internalization (%) ([7]; relative to hGIP 1-42 = 100) | SMILES | Emax [1, 8] [%] | Absolute hGLP-2R internalization (AUC) [2] | Relative hGLP-2R internalization (%) [2] [%] | Emax [3, 9] [%] | Absolute hGLP-1R internalization (AUC) [4] | Relative hGLP-1R internalization (%) [4] [%] | Emax [5, 10] [%] | EC50 [6] [nM] | Absolute hGIPR internalization (AUC) [7] | Relative hGIPR internalization (%) [7] [%]
 |  |  |  |  |  |  | CC[C@H](C)[C@H](NC(=O)[C@H](Cc1ccccc1)NC(=O)[C@H](CC(=O)O)NC(=O)[C@H](CCCNC(=N)N)NC(=O)[C@H](C)NC(=O)[C@H](C)NC(=O)[C@H](CC(C)C)NC(=O)[C@H](CCCCNC(=O)COCCOCCNC(=O)COCCOCCNC(=O)CC[C@H](NC(=O)CCCCCCCCCCCCCCCCC(=O)O)C(=O)O)NC(=O)[C@H](CC(=O)O)NC(=O)[C@H](CC(C)C)NC(=O)[C@@H](NC(=O)[C@@H](NC(=O)[C@H](CO)NC(=O)[C@H](Cc1ccc(O)cc1)NC(=O)[C@H](CC(=O)O)NC(=O)[C@H](CO)NC(=O)[C@@H](NC(=O)[C@H](Cc1ccccc1)NC(=O)[C@@H](NC(=O)CNC(=O)[C@H](CC(=O)O)NC(=O)[C@H](C)NC(=O)[C@@H](N)Cc1c[nH]cn1)[C@@H](C)O)[C@@H](C)CC)[C@@H](C)O)[C@@H](C)CC)C(=O)N[C@@H](CC(N)=O)C(=O)N[C@@H](Cc1c[nH]c2ccccc12)C(=O)N[C@@H](CC(C)C)C(=O)N[C@H](C(=O)N[C@@H](CCC(N)=O)C(=O)N[C@H](C(=O)N[C@@H](CCCCN)C(=O)NCC(=O)N[C@@H](CCCCN)C(=O)N[C@@H](CCCCN)C(=O)O)[C@@H](C)O)[C@@H](C)CC [Compound 30] | 73 | 22.7 | 46.8 | 93 | 7.3 | 8.6 | 98 | > 100 | 21.0 | 57
 |  |  |  |  |  |  | CC[C@H](C)[C@H](NC(=O)[C@H](Cc1ccccc1)NC(=O)[C@H](CC(=O)O)NC(=O)[C@H](CCCNC(=N)N)NC(=O)[C@H](C)NC(=O)[C@H](C)NC(=O)[C@H](CC(C)C)NC(=O)[C@H](CCCCNC(=O)COCCOCCNC(=O)COCCOCCNC(=O)CC[C@H](NC(=O)CCCCCCCCCCCCCCCCC(=O)O)C(=O)O)NC(=O)[C@H](CC(=O)O)NC(=O)[C@H](CC(C)C)NC(=O)C(C)(C)NC(=O)[C@@H](NC(=O)[C@H](CO)NC(=O)[C@H](Cc1ccc(O)cc1)NC(=O)[C@H](CC(=O)O)NC(=O)[C@H](CO)NC(=O)[C@@H](NC(=O)[C@H](Cc1ccccc1)NC(=O)[C@@H](NC(=O)CNC(=O)[C@H](CC(=O)O)NC(=O)[C@H](C)NC(=O)[C@@H](N)Cc1c[nH]cn1)[C@@H](C)O)[C@@H](C)CC)[C@@H](C)O)C(=O)N[C@@H](CC(N)=O)C(=O)N[C@@H](Cc1c[nH]c2ccccc12)C(=O)N[C@@H](CC(C)C)C(=O)N[C@H](C(=O)N[C@@H](CCC(N)=O)C(=O)N[C@H](C(=O)N[C@@H](CCCCN)C(=O)NCC(=O)N[C@@H](CCCCN)C(=O)N[C@@H](CCCCN)C(=O)O)[C@@H](C)O)[C@@H](C)CC [Compound 31] | 79 | 30.6 | 63.0 | 89 | 4.9 | 5.8 | 85 | > 100 | 16.0 | 43
77 | 3.2 | 84 | 80 | > 10 | 6.5 | 18 | CC[C@H](C)[C@H](NC(=O)[C@H](Cc1ccccc1)NC(=O)[C@H](CC(=O)O)NC(=O)[C@H](CCCNC(=N)N)NC(=O)[C@H](C)NC(=O)[C@H](C)NC(=O)[C@H](CCCCNC(=O)COCCOCCNC(=O)COCCOCCNC(=O)CC[C@H](NC(=O)CCCCCCCCCCCCCCCCC(=O)O)C(=O)O)NC(=O)[C@H](CC(N)=O)NC(=O)[C@H](CC(=O)O)NC(=O)[C@H](CC(C)C)NC(=O)[C@@H](NC(=O)[C@@H](NC(=O)[C@H](CO)NC(=O)[C@H](Cc1ccc(O)cc1)NC(=O)[C@H](CC(=O)O)NC(=O)[C@H](CO)NC(=O)[C@@H](NC(=O)[C@H](Cc1ccccc1)NC(=O)[C@@H](NC(=O)CNC(=O)[C@H](CC(=O)O)NC(=O)[C@H](C)NC(=O)[C@@H](N)Cc1c[nH]cn1)[C@@H](C)O)[C@@H](C)CC)[C@@H](C)O)[C@@H](C)CC)C(=O)N[C@@H](CC(N)=O)C(=O)N[C@@H](Cc1c[nH]c2ccccc12)C(=O)N[C@@H](CC(C)C)C(=O)N[C@H](C(=O)N[C@@H](CCC(N)=O)C(=O)N[C@H](C(=O)N[C@@H](CCCCN)C(=O)NCC(=O)N[C@@H](CCCCN)C(=O)N[C@@H](CCCCN)C(=O)O)[C@@H](C)O)[C@@H](C)CC [Compound 32] (H-HADGTFISDYSTILDNK([AEEA-AEEA-γGlu-C18 diacid])AARDFINWLIQTKGKK-OH) |  | 15.0 | 30.8 |  | 7.0 | 8.3 |  | > 100 |  | 
 |  |  |  |  |  |  | CC[C@H](C)[C@H](NC(=O)[C@H](Cc1ccccc1)NC(=O)[C@H](CC(=O)O)NC(=O)[C@H](CCCNC(=N)N)NC(=O)[C@H](C)NC(=O)[C@H](C)NC(=O)[C@H](CC(C)C)NC(=O)[C@H](CC(N)=O)NC(=O)[C@H](CC(=O)O)NC(=O)[C@H](CC(C)C)NC(=O)[C@@H](NC(=O)[C@@H](NC(=O)[C@H](CO)NC(=O)[C@H](Cc1ccc(O)cc1)NC(=O)[C@H](CC(=O)O)NC(=O)[C@H](CO)NC(=O)[C@@H](NC(=O)[C@H](Cc1ccccc1)NC(=O)[C@@H](NC(=O)CNC(=O)[C@H](CC(=O)O)NC(=O)[C@H](C)NC(=O)[C@@H](N)Cc1c[nH]cn1)[C@@H](C)O)[C@@H](C)CC)[C@@H](C)O)[C@@H](C)CC)C(=O)N[C@@H](CC(N)=O)C(=O)N[C@@H](Cc1c[nH]c2ccccc12)C(=O)N[C@@H](CC(C)C)C(=O)N[C@H](C(=O)N[C@@H](CCC(N)=O)C(=O)N[C@H](C(=O)N[C@@H](CCCCN)C(=O)NCC(=O)N[C@@H](CCCCN)C(=O)N[C@@H](CCCCNC(=O)COCCOCCNC(=O)COCCOCCNC(=O)CC[C@H](NC(=O)CCCCCCCCCCCCCCCCC(=O)O)C(=O)O)C(=O)O)[C@@H](C)O)[C@@H](C)CC [Compound 33] | 90 | 6.4 | 13.2 | 99 | 6.4 | 7.7 | 88 | > 100 | 15.8 | 43
